Molecules are shown by their SMILES. Peptide text beside a SMILES is read from it. * marks the point of attachment. Cbz = O=C(OCc1ccccc1)*

For experiment [1], the system named is retinal neurons (ganglion cells) and inner nuclear layer cells. As to the kind of experiment: Effect on rat ocular fundus tissue cytopathy (central retinal artery occlusion/reperfusion). It counts as in vivo. The conditions noted are these: male SD rats, 75 min central retinal artery occlusion, 100 mg/kg i.p. 15 min before occlusion, immediately after reperfusion, then once daily; specimens 5 days after reperfusion. An excerpt: FIG. 1 is a diagrammatic representation of the effect on injury of rat retinal ganglion cells. The ordinate represents the number of ganglion cells. In the diagram, a) denotes a significant difference (p<0.01) from the normal group by Student's t-test; b) denotes a significant difference (p<0.01) from the control group by Student's t-test.
FIG. 2 is a diagrammatic representation of the effect on injury of the rat retinal inner nuclear layer cells. The ordinate represents the number of inner nuclear layer cells. In the diagram, a) denotes a significant difference (p<0.01) from the normal group by Student's t-test; b) denotes a significant difference (p<0.01) from the control group by Student's t-test.
Effect on Rat Ocular Fundus Tissue Cytopathy Method:
Using male SD rats (b. wt. 150 g), the central retinal artery was occluded with an aneurysm clip under anesthesia with 5 w/v % ketamine HCl/2 w/v % xylazine HCl (3:1, 0.5 ml, i.p.) to arrest the blood flow for 75 minutes. In the normal group, the central retinal artery was exposed but ischemia was not introduced. Tissue specimens were prepared 5 days after reperfusion. For use as a tissue specimen, the enucleated eyeball was fixed in 4% formaldehyde and embedded in paraffin in a routine manner. Then, thin sections (3 μm thick) were prepared by transverse slicing at right angles with the retinal surface including the optic disc and stained with hematoxylin-eosin. Under the light microscope, the retinal neurons (ganglion cells) and inner nuclear layer cells were counted per 0.25 mm span of the retinal section at a predetermined distance (1-2 mm) from the optic disc. As the test drug, a parenteral suspention prepared as in Example 3 was administered intraperitoneally in a dose of 100 mg, as Compound 1, per kg body weight 15 minutes before arterial occlusion, immediately after reperfusion, and thereafter once daily (Compound 1 administration group). The control and normal groups were similarly given the vehicle used in Example 3. In the positive control group, Cbz-Val-Phe-H [S.C. Hong et al., Stroke, 25 (3), 663-669, 1994], 100 mg/kg, was similarly administered (MDL administration group).

A further experiment deals with calpain. As to the kind of experiment: Effect on rat enucleated retina cytopathy under hypoxia (spectrin cleavage, SDS electrophoresis). It is filed as cell-based. The conditions noted are these: rat retina incubated under hypoxia in glucose-free RPMI 1640, 3 and 6 hours, 100 μM. On the procedure:
FIG. 3(a) and FIG. 3(b) are SDS electrophoretic images showing the cleavage product of endocellular spectrin obtained upon homogenation of retina tissues detected after incubation of rat retina tissues under hypoxia, wherein FIG. 3(a) and FIG. 3(b) show SDS electrophoretic images after incubation for 3 hours and 6 hours, respectively.
Effect on Rat Enucleated Retina Cytopathy Under Hypoxia Method:
The ocular fundus tissue (retina) of male SD rats (b. wt. 150 g) was removed and incubated under hypoxia in RPMI 1640 medium (manufactured by (Gibco) without glucose. The ocular fundus tissue was homogenized 3 and 6 hours later, and the cleavage product of endocellular spectrin was isolated by SDS electrophoresis and detected using homophil prepared by the method of Saido et. al. [The Journal of Biological Chemistry, 268, 25239-25243 (1993)]. As the test compounds, Compound 1 and MDL were dissolved in ethanol to a concentration of 20 mM and added to the culture medium to a concentration of 100 μM (Compound 1 administration group and MDL administration group). As a control, the ocular fundus tissue of male SD rats (b. wt. 150 g) was incubated in the same manner in the presence of oxygen in RPMI 1640 medium containing glucose.

Take `CC(C)C[C@@H](C=O)NC(=O)[C@@H](NS(=O)(=O)c1ccc(F)cc1)C(C)C` [Compound 1, N-(4-fluorophenylsulfonyl)-L-valyl-L-leucinal]: in experiment [1], the “inhibition of the decrease in ganglion cell count caused by arterial occlusion” value is “significantly inhibited” and the “inhibition of the decrease in inner nuclear layer cell count caused by arterial occlusion” value is recorded as “significantly inhibited”. In addition, in the experiment on calpain, the “145 kDa band (cleavage product of spectrin)” value was “not detected” and the “150 kDa band due to the digestion of spectrin” value is “somewhat detected”.
Consider `CC(C)[C@H](NC(=O)OCc1ccccc1)C(=O)N[C@H](C=O)Cc1ccccc1` [MDL, Cbz-Val-Phe-H] (Cbz-Val-Phe-aldehyde), for which, in experiment [1], the “inhibition of the decrease in ganglion cell count caused by arterial occlusion” value is given as “slight” and the “inhibition of the decrease in inner nuclear layer cell count caused by arterial occlusion” value is “slight”. In the experiment on calpain, the “145 kDa band (cleavage product of spectrin)” value is given as “not detected” and the “150 kDa band due to the digestion of spectrin” value is “somewhat detected”.

These data come from patent publication US6423691B1, “Pharmaceutical composition for prophylaxis and therapy of diseases associated with ocular fundus tissue cytography” (Senju Pharmaceutical Co., Ltd., priority 1998, dated 2002).
